# Assays:
# Test in all cases: KINOMEscan kinase profiling
# Type in all cases: binding
# ABL1-nonphosphorylated = molecular target: T1, ABL1-nonphosphorylated (Homo sapiens, UniProt P00519); details: read-out: %Inhibition by 10 μM SPA70
# T1 construct: purchased DiscoverX (Ambit Biosciences) KINOMEscan
# Experimental: (§1) Kinase inhibition profiling assays. The kinase inhibition profiling assay (KINOMEscan) was performed by Ambit Biosciences, now part of DiscoveryX (Fremont, CA) in accordance with the […]
# (§2) published protocol20, 21. […] If the inhibition of a kinase was greater […]
# (§3) dilutions) starting from 30 µM.
# AKT3 = molecular target: T2, AKT3 (Homo sapiens, UniProt Q9Y243); details: read-out: %Inhibition by 10 μM SPA70
# T2 construct: purchased DiscoverX (Ambit Biosciences) KINOMEscan
# Experimental: as §1, §2, §3
# BRAF = molecular target: T3, BRAF (Homo sapiens, UniProt P15056); details: read-out: %Inhibition by 10 μM SPA70
# T3 construct: purchased DiscoverX (Ambit Biosciences) KINOMEscan
# Experimental: as §1, §2, §3
# CAMK1 = molecular target: T4, CAMK1 (Homo sapiens, UniProt Q14012); details: read-out: %Inhibition by 10 μM SPA70
# T4 construct: purchased DiscoverX (Ambit Biosciences) KINOMEscan
# Experimental: as §1, §2, §3
# CDKL3 = molecular target: T5, CDKL3 (Homo sapiens, UniProt Q8IVW4); details: read-out: %Inhibition by 10 μM SPA70
# T5 construct: purchased DiscoverX (Ambit Biosciences) KINOMEscan
# Experimental: as §1, §2, §3
# CHEK1 = molecular target: T6, CHEK1 (Homo sapiens, UniProt O14757)
# T6 construct: purchased DiscoverX (Ambit Biosciences) KINOMEscan
# Experimental: as §1, §2, §3
# CSNK1G1 = molecular target: T7, CSNK1G1 (Homo sapiens, UniProt Q9HCP0)
# T7 construct: purchased DiscoverX (Ambit Biosciences) KINOMEscan
# Experimental: as §1, §2, §3
# CSNK1G3 = molecular target: T8, CSNK1G3 (Homo sapiens, UniProt Q9Y6M4)
# T8 construct: purchased DiscoverX (Ambit Biosciences) KINOMEscan
# Experimental: as §1, §2, §3
# DAPK2 = molecular target: T9, DAPK2 (Homo sapiens, UniProt Q9UIK4); details: read-out: %Inhibition by 10 μM SPA70
# T9 construct: purchased DiscoverX (Ambit Biosciences) KINOMEscan
# Experimental: as §1, §2, §3
# DRAK2 = molecular target: T10, DRAK2 (Homo sapiens, UniProt O94768); details: read-out: %Inhibition by 10 μM SPA70
# T10 construct: purchased DiscoverX (Ambit Biosciences) KINOMEscan
# Experimental: as §1, §2, §3
# DYRK2 = molecular target: T11, DYRK2 (Homo sapiens, UniProt Q92630); details: read-out: %Inhibition by 10 μM SPA70
# T11 construct: purchased DiscoverX (Ambit Biosciences) KINOMEscan
# Experimental: as §1, §2, §3
# EPHA8 = molecular target: T12, EPHA8 (Homo sapiens, UniProt P29322); details: read-out: %Inhibition by 10 μM SPA70
# T12 construct: purchased DiscoverX (Ambit Biosciences) KINOMEscan
# Experimental: as §1, §2, §3
# EPHB1 = molecular target: T13, EPHB1 (Homo sapiens, UniProt P54762); details: read-out: %Inhibition by 10 μM SPA70
# T13 construct: purchased DiscoverX (Ambit Biosciences) KINOMEscan
# Experimental: as §1, §2, §3
# FGFR3 = molecular target: T14, FGFR3 (Homo sapiens, UniProt P22607); details: read-out: %Inhibition by 10 μM SPA70
# T14 construct: purchased DiscoverX (Ambit Biosciences) KINOMEscan
# Experimental: as §1, §2, §3
# ICK = molecular target: T15, ICK (Homo sapiens, UniProt Q9UPZ9); details: read-out: %Inhibition by 10 μM SPA70
# T15 construct: purchased DiscoverX (Ambit Biosciences) KINOMEscan
# Experimental: as §1, §2, §3
# IKK-beta = molecular target: T16, IKK-beta (Homo sapiens, UniProt O14920); details: read-out: %Inhibition by 10 μM SPA70
# T16 construct: purchased DiscoverX (Ambit Biosciences) KINOMEscan
# Experimental: as §1, §2, §3
# INSRR = molecular target: T17, INSRR (Homo sapiens, UniProt P14616); details: read-out: %Inhibition by 10 μM SPA70
# T17 construct: purchased DiscoverX (Ambit Biosciences) KINOMEscan
# Experimental: as §1, §2, §3
# LCK = molecular target: T18, LCK (Homo sapiens, UniProt P06239); details: read-out: %Inhibition by 10 μM SPA70
# T18 construct: purchased DiscoverX (Ambit Biosciences) KINOMEscan
# Experimental: as §1, §2, §3
# MAP3K3 = molecular target: T19, MAP3K3 (Homo sapiens, UniProt Q99759); details: read-out: %Inhibition by 10 μM SPA70
# T19 construct: purchased DiscoverX (Ambit Biosciences) KINOMEscan
# Experimental: as §1, §2, §3
# MAP3K4 = molecular target: T20, MAP3K4 (Homo sapiens, UniProt Q9Y6R4); details: read-out: %Inhibition by 10 μM SPA70
# T20 construct: purchased DiscoverX (Ambit Biosciences) KINOMEscan
# Experimental: as §1, §2, §3
# MARK2 = molecular target: T21, MARK2 (Homo sapiens, UniProt Q7KZI7); details: read-out: %Inhibition by 10 μM SPA70
# T21 construct: purchased DiscoverX (Ambit Biosciences) KINOMEscan
# Experimental: as §1, §2, §3
# MST1 = molecular target: T22, MST1 (Homo sapiens, UniProt Q13043)
# T22 construct: purchased DiscoverX (Ambit Biosciences) KINOMEscan
# Experimental: as §1, §2, §3
# MST2 = molecular target: T23, MST2 (Homo sapiens, UniProt Q13188)
# T23 construct: purchased Ambit Biosciences, now part of DiscoveryX
# Experimental: as §1, §2, §3
# NDR1 = molecular target: T24, NDR1 (Homo sapiens, UniProt Q15208); details: read-out: %Inhibition by 10 μM SPA70
# T24 construct: purchased DiscoverX (Ambit Biosciences) KINOMEscan
# Experimental: as §1, §2, §3
# NEK1 = molecular target: T25, NEK1 (Homo sapiens, UniProt Q96PY6); details: read-out: %Inhibition by 10 μM SPA70
# T25 construct: purchased DiscoverX (Ambit Biosciences) KINOMEscan
# Experimental: as §1, §2, §3
# NIM1 = molecular target: T26, NIM1 (Homo sapiens, UniProt Q8IY84); details: read-out: %Inhibition by 10 μM SPA70
# T26 construct: purchased DiscoverX (Ambit Biosciences) KINOMEscan
# Experimental: as §1, §2, §3
# PHKG1 = molecular target: T27, PHKG1 (Homo sapiens, UniProt Q16816); details: read-out: %Inhibition by 10 μM SPA70
# T27 construct: purchased DiscoverX (Ambit Biosciences) KINOMEscan
# Experimental: as §1, §2, §3
# PIK3CG = molecular target: T28, PIK3CG (Homo sapiens, UniProt P48736); details: read-out: %Inhibition by 10 μM SPA70
# T28 construct: purchased DiscoverX (Ambit Biosciences) KINOMEscan
# Experimental: as §1, §2, §3
# PKMYT1 = molecular target: T29, PKMYT1 (Homo sapiens, UniProt Q99640)
# T29 construct: purchased DiscoverX (Ambit Biosciences) KINOMEscan
# Experimental: as §1, §2, §3
# PRKCD = molecular target: T30, PRKCD (Homo sapiens, UniProt Q05655); details: read-out: %Inhibition by 10 μM SPA70
# T30 construct: purchased DiscoverX (Ambit Biosciences) KINOMEscan
# Experimental: as §1, §2, §3
# PRKD1 = molecular target: T31, PRKD1 (Homo sapiens, UniProt Q15139); details: read-out: %Inhibition by 10 μM SPA70
# T31 construct: purchased DiscoverX (Ambit Biosciences) KINOMEscan
# Experimental: as §1, §2, §3
# PRKD3 = molecular target: T32, PRKD3 (Homo sapiens, UniProt O94806); details: read-out: %Inhibition by 10 μM SPA70
# T32 construct: purchased DiscoverX (Ambit Biosciences) KINOMEscan
# Experimental: as §1, §2, §3
# PRKG1 = molecular target: T33, PRKG1 (Homo sapiens, UniProt Q13976); details: read-out: %Inhibition by 10 μM SPA70
# T33 construct: purchased DiscoverX (Ambit Biosciences) KINOMEscan
# Experimental: as §1, §2, §3
# PRKG2 = molecular target: T34, PRKG2 (Homo sapiens, UniProt Q13237); details: read-out: %Inhibition by 10 μM SPA70
# T34 construct: purchased DiscoverX (Ambit Biosciences) KINOMEscan
# Experimental: as §1, §2, §3
# PRP4 = molecular target: T35, PRP4 (Homo sapiens, UniProt Q13523); details: read-out: %Inhibition by 10 μM SPA70
# T35 construct: purchased DiscoverX (Ambit Biosciences) KINOMEscan
# Experimental: as §1, §2, §3
# SRMS = molecular target: T36, SRMS (Homo sapiens, UniProt Q9H3Y6); details: read-out: %Inhibition by 10 μM SPA70
# T36 construct: purchased DiscoverX (Ambit Biosciences) KINOMEscan
# Experimental: as §1, §2, §3
# SgK110 = molecular target: T37, SgK110 (Homo sapiens, UniProt P0C264); details: read-out: %Inhibition by 10 μM SPA70
# T37 construct: purchased DiscoverX (Ambit Biosciences) KINOMEscan
# Experimental: as §1, §2, §3
# TGFBR1 = molecular target: T38, TGFBR1 (Homo sapiens, UniProt P36897); details: read-out: %Inhibition by 10 μM SPA70
# T38 construct: purchased DiscoverX (Ambit Biosciences) KINOMEscan
# Experimental: as §1, §2, §3
# TRKA = molecular target: T39, TRKA (Homo sapiens, UniProt P04629); details: read-out: %Inhibition by 10 μM SPA70
# T39 construct: purchased DiscoverX (Ambit Biosciences) KINOMEscan
# Experimental: as §1, §2, §3
# TRKB = molecular target: T40, TRKB (Homo sapiens, UniProt Q16620); details: read-out: %Inhibition by 10 μM SPA70
# T40 construct: purchased DiscoverX (Ambit Biosciences) KINOMEscan
# Experimental: as §1, §2, §3
# YANK2 = molecular target: T41, YANK2 (Homo sapiens, UniProt Q9NY57); details: read-out: %Inhibition by 10 μM SPA70
# T41 construct: purchased DiscoverX (Ambit Biosciences) KINOMEscan
# Experimental: as §1, §2, §3
# p38-alpha = molecular target: T42, p38-alpha (Homo sapiens, UniProt Q16539)
# T42 construct: purchased DiscoverX (Ambit Biosciences) KINOMEscan
# Experimental: as §1, §2, §3
# T23 sequence (Q13188 whole entry): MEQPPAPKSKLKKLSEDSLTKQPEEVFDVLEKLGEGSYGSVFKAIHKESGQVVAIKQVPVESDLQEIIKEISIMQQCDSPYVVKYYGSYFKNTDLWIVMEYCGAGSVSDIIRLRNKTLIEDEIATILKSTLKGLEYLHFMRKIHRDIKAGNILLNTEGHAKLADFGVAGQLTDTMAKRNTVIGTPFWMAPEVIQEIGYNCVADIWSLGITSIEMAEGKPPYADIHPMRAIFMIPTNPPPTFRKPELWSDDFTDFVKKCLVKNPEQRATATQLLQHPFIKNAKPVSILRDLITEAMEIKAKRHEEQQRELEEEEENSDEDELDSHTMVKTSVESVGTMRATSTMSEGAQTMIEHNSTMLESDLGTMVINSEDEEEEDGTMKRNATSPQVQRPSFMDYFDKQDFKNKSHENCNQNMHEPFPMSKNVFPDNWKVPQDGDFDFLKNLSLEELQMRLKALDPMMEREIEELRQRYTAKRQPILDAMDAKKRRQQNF
# T16 sequence (O14920 whole entry): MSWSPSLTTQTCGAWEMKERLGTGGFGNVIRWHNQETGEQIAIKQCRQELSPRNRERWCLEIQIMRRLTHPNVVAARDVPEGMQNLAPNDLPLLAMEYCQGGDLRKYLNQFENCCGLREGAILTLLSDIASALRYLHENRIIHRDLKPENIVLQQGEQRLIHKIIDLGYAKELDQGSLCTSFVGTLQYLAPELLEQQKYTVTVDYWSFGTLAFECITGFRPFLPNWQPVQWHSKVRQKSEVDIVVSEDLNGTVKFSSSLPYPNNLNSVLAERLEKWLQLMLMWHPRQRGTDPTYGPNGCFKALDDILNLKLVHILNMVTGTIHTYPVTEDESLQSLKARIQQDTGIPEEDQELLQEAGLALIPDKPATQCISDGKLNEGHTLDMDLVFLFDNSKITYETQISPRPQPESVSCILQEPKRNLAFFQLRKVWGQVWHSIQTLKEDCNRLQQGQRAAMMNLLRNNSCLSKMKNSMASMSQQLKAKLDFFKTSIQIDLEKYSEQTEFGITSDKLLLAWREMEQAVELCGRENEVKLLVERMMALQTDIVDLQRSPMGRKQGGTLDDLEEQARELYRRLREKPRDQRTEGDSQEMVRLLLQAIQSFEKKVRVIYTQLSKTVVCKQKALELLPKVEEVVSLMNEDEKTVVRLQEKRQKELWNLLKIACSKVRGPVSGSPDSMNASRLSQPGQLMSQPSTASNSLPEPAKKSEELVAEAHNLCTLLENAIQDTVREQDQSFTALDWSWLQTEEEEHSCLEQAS
# T31 sequence (Q15139 whole entry): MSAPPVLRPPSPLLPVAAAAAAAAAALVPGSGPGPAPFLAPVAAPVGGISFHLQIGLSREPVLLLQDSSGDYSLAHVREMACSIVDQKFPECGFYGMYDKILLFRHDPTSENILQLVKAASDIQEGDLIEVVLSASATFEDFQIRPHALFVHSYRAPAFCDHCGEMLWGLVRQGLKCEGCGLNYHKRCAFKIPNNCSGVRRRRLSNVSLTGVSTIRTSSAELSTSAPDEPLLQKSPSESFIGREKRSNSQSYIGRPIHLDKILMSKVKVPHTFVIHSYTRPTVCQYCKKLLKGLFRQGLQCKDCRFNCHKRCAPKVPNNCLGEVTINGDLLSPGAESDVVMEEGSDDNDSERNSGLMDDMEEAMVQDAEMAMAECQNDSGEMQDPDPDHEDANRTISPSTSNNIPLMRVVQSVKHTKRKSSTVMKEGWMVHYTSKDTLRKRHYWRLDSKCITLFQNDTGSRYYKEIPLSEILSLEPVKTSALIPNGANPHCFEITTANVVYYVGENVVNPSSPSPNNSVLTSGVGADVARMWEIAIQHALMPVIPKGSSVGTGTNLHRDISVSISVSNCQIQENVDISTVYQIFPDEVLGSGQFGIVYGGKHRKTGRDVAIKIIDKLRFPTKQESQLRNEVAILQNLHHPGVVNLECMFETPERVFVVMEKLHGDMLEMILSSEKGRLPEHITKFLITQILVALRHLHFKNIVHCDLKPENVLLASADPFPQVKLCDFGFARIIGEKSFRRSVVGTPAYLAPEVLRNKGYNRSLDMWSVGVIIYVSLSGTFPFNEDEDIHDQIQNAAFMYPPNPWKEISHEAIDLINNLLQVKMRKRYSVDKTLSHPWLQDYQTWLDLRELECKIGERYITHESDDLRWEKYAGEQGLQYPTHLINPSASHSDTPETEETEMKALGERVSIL
# T38 sequence (P36897 34-503): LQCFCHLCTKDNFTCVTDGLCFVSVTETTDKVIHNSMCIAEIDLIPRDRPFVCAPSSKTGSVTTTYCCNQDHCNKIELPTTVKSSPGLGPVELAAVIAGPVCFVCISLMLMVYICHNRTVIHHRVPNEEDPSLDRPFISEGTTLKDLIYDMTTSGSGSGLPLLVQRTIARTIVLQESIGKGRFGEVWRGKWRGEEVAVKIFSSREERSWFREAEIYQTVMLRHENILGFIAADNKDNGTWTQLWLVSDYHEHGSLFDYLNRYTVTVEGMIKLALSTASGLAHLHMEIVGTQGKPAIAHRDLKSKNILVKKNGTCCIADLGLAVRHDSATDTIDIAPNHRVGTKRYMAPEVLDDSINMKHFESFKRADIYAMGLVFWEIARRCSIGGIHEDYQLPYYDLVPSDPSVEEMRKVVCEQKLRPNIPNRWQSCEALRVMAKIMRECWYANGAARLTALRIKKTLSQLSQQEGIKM
# T42 sequence (Q16539 whole entry): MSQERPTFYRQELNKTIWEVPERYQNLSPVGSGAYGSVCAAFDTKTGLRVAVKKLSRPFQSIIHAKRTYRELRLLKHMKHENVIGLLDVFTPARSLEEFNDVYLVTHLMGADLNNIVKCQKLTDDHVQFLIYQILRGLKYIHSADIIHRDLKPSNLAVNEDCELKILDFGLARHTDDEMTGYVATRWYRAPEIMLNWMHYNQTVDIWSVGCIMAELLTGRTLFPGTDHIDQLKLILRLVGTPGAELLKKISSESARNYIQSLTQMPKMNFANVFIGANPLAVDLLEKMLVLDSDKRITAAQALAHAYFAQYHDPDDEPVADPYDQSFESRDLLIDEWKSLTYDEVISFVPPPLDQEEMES
# T10 sequence (O94768 whole entry): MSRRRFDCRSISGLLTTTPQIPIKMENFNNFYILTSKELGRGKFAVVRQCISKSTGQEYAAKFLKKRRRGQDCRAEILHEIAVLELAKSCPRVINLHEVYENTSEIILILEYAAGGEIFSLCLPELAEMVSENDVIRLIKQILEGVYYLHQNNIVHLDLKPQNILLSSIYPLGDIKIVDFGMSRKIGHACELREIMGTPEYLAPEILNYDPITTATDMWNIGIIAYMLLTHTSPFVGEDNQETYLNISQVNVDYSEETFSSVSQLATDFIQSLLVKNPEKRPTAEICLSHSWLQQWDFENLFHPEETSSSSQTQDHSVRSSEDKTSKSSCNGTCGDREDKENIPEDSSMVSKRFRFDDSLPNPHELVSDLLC
# T37 sequence (P0C264 whole entry): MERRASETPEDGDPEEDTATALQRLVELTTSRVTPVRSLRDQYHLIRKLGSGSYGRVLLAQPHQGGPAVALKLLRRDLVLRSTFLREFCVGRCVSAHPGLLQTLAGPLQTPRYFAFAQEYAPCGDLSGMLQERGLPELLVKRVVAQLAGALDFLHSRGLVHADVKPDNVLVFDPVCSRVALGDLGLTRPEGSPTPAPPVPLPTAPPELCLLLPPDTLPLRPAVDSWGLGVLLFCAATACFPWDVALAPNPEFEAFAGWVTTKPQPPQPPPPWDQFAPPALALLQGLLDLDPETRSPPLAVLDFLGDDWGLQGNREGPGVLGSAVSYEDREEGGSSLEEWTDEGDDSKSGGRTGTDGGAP
# T25 sequence (Q96PY6 whole entry): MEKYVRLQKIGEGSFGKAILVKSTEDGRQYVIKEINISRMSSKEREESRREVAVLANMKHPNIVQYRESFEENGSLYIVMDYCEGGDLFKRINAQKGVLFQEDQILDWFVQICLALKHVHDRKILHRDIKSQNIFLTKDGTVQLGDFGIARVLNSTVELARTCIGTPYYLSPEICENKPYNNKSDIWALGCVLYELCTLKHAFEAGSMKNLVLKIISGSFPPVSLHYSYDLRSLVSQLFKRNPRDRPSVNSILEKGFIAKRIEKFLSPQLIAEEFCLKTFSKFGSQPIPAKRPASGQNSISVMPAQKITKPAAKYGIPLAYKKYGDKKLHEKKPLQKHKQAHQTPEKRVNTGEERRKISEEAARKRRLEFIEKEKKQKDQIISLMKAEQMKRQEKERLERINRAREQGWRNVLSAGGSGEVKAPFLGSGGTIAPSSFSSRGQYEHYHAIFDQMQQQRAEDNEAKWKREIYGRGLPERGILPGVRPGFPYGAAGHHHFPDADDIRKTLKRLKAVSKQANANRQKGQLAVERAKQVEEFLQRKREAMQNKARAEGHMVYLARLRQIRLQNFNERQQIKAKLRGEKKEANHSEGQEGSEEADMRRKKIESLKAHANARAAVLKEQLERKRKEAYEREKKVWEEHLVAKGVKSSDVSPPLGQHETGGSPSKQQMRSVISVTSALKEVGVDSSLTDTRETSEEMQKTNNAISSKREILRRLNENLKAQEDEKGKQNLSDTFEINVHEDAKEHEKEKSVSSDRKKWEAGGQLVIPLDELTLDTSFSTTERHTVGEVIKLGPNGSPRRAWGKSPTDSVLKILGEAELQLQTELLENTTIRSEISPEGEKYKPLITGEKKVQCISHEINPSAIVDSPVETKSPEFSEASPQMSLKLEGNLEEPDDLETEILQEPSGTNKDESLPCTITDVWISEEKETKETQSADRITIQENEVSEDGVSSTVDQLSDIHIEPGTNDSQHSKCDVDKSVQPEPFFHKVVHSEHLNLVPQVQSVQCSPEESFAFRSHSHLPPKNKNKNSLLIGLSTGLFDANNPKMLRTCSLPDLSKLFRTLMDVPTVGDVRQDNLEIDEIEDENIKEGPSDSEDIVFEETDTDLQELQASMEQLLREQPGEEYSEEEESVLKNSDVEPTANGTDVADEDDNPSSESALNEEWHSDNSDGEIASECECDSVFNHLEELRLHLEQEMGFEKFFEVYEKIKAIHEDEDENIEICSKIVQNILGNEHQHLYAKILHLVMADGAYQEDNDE
smiles,measurement,setting,value
COc1ccc(OC)c(-n2nnc(S(=O)(=O)c3ccc(C(C)(C)C)cc3)c2C)c1 [SPA70],inhibition at 10 µM,ABL1-nonphosphorylated,0%
same,inhibition at 10 µM,AKT3,0%
same,inhibition at 10 µM,BRAF,0%
same,inhibition at 10 µM,CAMK1,0%
same,inhibition at 10 µM,CDKL3,6%
same,%Inhibition by 10 μM SPA70,CHEK1,8%
same,%Inhibition by 10 μM SPA70,CSNK1G1,0%
same,%Inhibition by 10 μM SPA70,CSNK1G3,0%
same,inhibition at 10 µM,DAPK2,0%
same,inhibition at 10 µM,DRAK2,5%
same,inhibition at 10 µM,DYRK2,12%
same,inhibition at 10 µM,EPHA8,13%
same,inhibition at 10 µM,EPHB1,0%
same,inhibition at 10 µM,FGFR3,0%
same,inhibition at 10 µM,ICK,0%
same,inhibition at 10 µM,IKK-beta,26%
same,inhibition at 10 µM,INSRR,0%
same,inhibition at 10 µM,LCK,2%
same,inhibition at 10 µM,MAP3K3,16%
same,inhibition at 10 µM,MAP3K4,0%
same,inhibition at 10 µM,MARK2,16%
same,%Inhibition by 10 μM SPA70,MST1,0%
same,Kd,MST2; 11-point 3-fold serial dilutions starting from 30 µM,> 30 µM
same,inhibition at 10 µM,MST2; read-out: %Inhibition by 10 μM SPA70,62%
same,inhibition at 10 µM,NDR1,0%
same,inhibition at 10 µM,NEK1,0%
same,inhibition at 10 µM,NIM1,4%
same,inhibition at 10 µM,PHKG1,0%
same,inhibition at 10 µM,PIK3CG,9%
same,%Inhibition by 10 μM SPA70,PKMYT1,38%
same,inhibition at 10 µM,PRKCD,5%
same,inhibition at 10 µM,PRKD1,0%
same,inhibition at 10 µM,PRKD3,0%
same,inhibition at 10 µM,PRKG1,0%
same,inhibition at 10 µM,PRKG2,12%
same,inhibition at 10 µM,PRP4,0%
same,inhibition at 10 µM,SRMS,0%
same,inhibition at 10 µM,SgK110,0%
same,inhibition at 10 µM,TGFBR1,20%
same,inhibition at 10 µM,TRKA,0%
same,inhibition at 10 µM,TRKB,0%
same,inhibition at 10 µM,YANK2,0%
same,%Inhibition by 10 μM SPA70,p38-alpha,0%

# Reference: publication PMC5622171 (Nature Communications, 2017)
